Results taken from patent publication US20030113330A1, “Methods for treating pulmonary fibrosis” (priority 1999, published 2003).
Where a SMILES comes first, the peptide text is derived from it. The star is where a group is joined. Cbz = O=C(OCc1ccccc1)*; CH2F = FC*

What was measured:
adult male Wistar rats = conditions: for lung lesions, histology / total lung collagens by hydroxyproline assay: 14 days post-bleomycin
Protocol: Adult male Wistar rats were given intratracheal instillations of 8 U/kg bleomycin sulfate (BLEO) or sterile saline. […] Lung fibrosis was assessed by picrosirius red (PR) quantitation of lung collagen and by hydroxyproline (HP) assay at 14 days after BLEO administration. At the same time point, fragmented DNA in lung epithelial cells was detected by in situ end labeling (ISEL).
Animals and Induction of Pulmonary Fibrosis. Forty adult male Wistar rats, 175-200 grams, were divided into four groups; three groups received a single intratracheal instillation of 8 units per kilogram of bleomycin sulfate (BLEO) in sterile saline. Two days before the administration of BLEO, one group received captopril in the drinking water at a concentration of 500 mg/liter. […] Control animals (NORM) received administrations of the vehicles only.
Immediately before sacrifice, animals were given intraperitoneal injections of sodium pentobarbital and the trachea was cannulated. The middle right lobe was ligated at the hilus, was excised distal to the ligation and was immediately frozen in liquid N2 for hydroxyproline assay of total collagen (see below). The remaining lung tissues were carefully removed and were instilled with 4% paraformaldehyde in PBS at 20 cm H2O constant pressure, then immersed in the same fixative for two hours. The fixed tissues were washed with PBS three times for 15 minutes and were then embedded in paraffin. Five-micron sections of lung were deparaffinized by passing through xylene, xylene:alcohol 1:1, 100% alcohol and 70% alcohol for 10 minutes each. Ethanol was removing by rinsing with distilled water.
In situ end-labeling (ISEL) of fragmented DNA. ISEL was conducted by a modification of the method of Mundle et al., Cell Death and Differentiation, 1: 117-122 (1994). Briefly, ethanol was removed from deparaffinized lung sections by rinsing in distilled water for at least 10 minutes. The slides were then placed in 3% hydrogen peroxide (Sigma Chemical, St. Louis, Mo.) for 30 minutes at 20° C., rinsed with PBS, and incubated with Proteinase K (Sigma Chemical, St. Louis, Mo.) in saline sodium citrate solution (SSC) (0.3 M NaCi and 30 mM sodium citrate in water, pH 7.0) for 15 minutes at 37° C. Samples were rinsed once in water, three times in 0.15 M PBS for 4 minutes each, and then incubated in SSC at 80° C. for 20 minutes. After four rinses in PBS and four rinses in Buffer A (50 mM Tris/HCl, 5 mM MgCl, 10 mM β-mercaptoethanol and 0.005% BSA in water, pH 7.5), the sections were incubated at 18° C. for two hours with ISEL solution (0.001 mM digoxigenin-dUTP, 20 U/ml DNA Polymerase 1 and 0.01 mM each of dATP, dCTP and dGTP in Buffer A). The sections were then rinsed thoroughly five times with Buffer A and three times with PBS. Detection of incorporated dUTP was achieved by incubation for two hours at 37° C. with AP-conjugated anti-digoxigenin (Boerhinger Mannheim, Indianapolis, Ind.) at a 1:400 dilution. Bound AP-antibody complexes were detected with the Fast Blue chromogen system and the sections were mounted with Fluoromount Solution (Southern Biotechnology, Birmingham, Ala.).
Identification of Collagen. Collagens were localized through staining of lung sections by the picrosirius red technique, see Pick et al., Am. J. Pathol. 134:365-371 (1989), which has absolute specificity for collagen. Briefly, sections deparaffinized with xylenes were rehydrated through a descending series of ethanols to distilled water. The hydrated sections were immersed in 0.2% aqueous phosphomolybdic acid for 2 minutes, rinsed in distilled water and then stained for 110 minutes with 0.1% Sirius Red F3BA (Pfal and Bauer, Stamford, Conn.) in saturated aqueous picric acid, pH 2.0. The sections were washed for 2 minutes in 0.01 N HCl, rinsed for 45 seconds in 70% ethanol, dehydrated in three changes of absolute alcohol, cleared in xylene and mounted in a nonaqueous mounting medium.

[1] = system: angiotensinogen (ANGEN) mRNA; assay: Quantitative RT-PCR of angiotensinogen mRNA in Fas-activated A549 cells; type: cell-based, human; conditions: A549, CH-11
Protocol: RT-PCR. Reverse transcriptase polymerase chain reaction (RT-PCR) assay of angiotensinogen gene products was performed as described in Wang et al., Am. J. Physiol. 276:L885-L889 (1999) in a total reaction volume of 30 μl. Total RNA was isolated by the RNeasy Mini protocol (Qiagen Co., Santa Clarita, Calif.). The reaction was performed for 1 hour at 45 C. followed by 20 cycles of PCR amplification. PCR amplification was performed with 10 ul aliquots of cDNA, equivalent to 1 ug of the starting RNA. The identity of expressed genes was determined by expected size of the PCR product in 1.6% agarose gels.
For RT-PCR from the human A549 cells, the following primers were used: for angiotensinogen, “outer” primer of a two-step nested assay, coding=5′ GCTTTC-[…] 3′ [SEQ. ID NO. ______], and noncoding=5′ […] 3′ [SEQ. ID. NO. ______]; for the “inner” primer of the nested assay, coding=5′ […] 3′ [SEQ. ID NO. ______], and noncoding=5′ […] 3′ [SEQ. ID NO. ______]. These primers yield a final PCR product of 447 bp (8). […]
To confirm this, total RNA was isolated from human A549 cells or primary rat AEC that were unactivated (CTL) or activated with Fas-ligating CH-11 antibody or purified Fas ligand in the presence or absence of saralasin (SAR). Quantitative RT-PCR was performed with primers specific for human or rat angiotensinogen (ANGEN), β-actin or β-microglobulin (b-MG). […]

| SMILES | inhibition of ISEL labeling in AEC (adult male Wistar rats; 14 days after BLEO) [%] | inhibition of ISEL labeling in airway epithelial cells (adult male Wistar rats; 14 days after BLEO) [%] | lung lesions, histology (adult male Wistar rats) | total lung collagens by hydroxyproline assay (adult male Wistar rats) | effect on accumulation of ANGEN mRNA during Fas activation [1] | inhibition of accumulation of lung collagens (adult male Wistar rats; captopril 500 mg/liter drinking water, ZVAD-fmk 1 mg per kg daily i.p., 14 days after BLEO) [%] |
| --- | --- | --- | --- | --- | --- | --- |
| C[C@H](CS)C(=O)N1CCC[C@H]1C(=O)O [captopril] | 99 | 67 | much less extensive | inhibited lung collagen accumulation |  |  |
| CNCC(=O)N[C@@H](CCCN=C(N)N)C(=O)N[C@H](C(=O)N[C@@H](Cc1ccc(O)cc1)C(=O)N[C@H](C(=O)N[C@@H](Cc1cnc[nH]1)C(=O)N1CCC[C@H]1C(=O)N[C@@H](C)C(=O)O)C(C)C)C(C)C [saralasin] |  |  |  |  | had no effect |  |
| COC(=O)C[C@H](NC(=O)[C@H](C)NC(=O)[C@@H](NC(=O)OCc1ccccc1)C(C)C)C(=O)CF [ZVAD-fmk, N-benzylcarboxy-Val-Ala-Asp-[O-Me]-CH2F] (Cbz-Val-Ala-Asp(OMe)-CH2F) |  |  | much less extensive | inhibited lung collagen accumulation |  | 85 |
